Source: patent publication US9611283B1, “Methods for inhibiting cell proliferation in ALK-driven cancers” (ARIAD Pharmaceuticals, Inc., priority 2013, dated 2017)
Where two headings read alike, the source gives them in different places.

Assays:
[1] = tested on: Parental Ba/F3 cells; test: In vitro viability / Ba/F3 cellular proliferation assay, parental cells; type: cell-based; conditions: Mus musculus; for IC50: BaF3
[2] = target: Ba/F3 cells expressing EML4-ALK 1151 T insertion (Homo sapiens, UniProt Q9UM73, DUP1151-1151); test: Ba/F3 cellular proliferation assay, EML4-ALK 1151 T insertion; conditions: Table 2
[3] = tested on: Ba/F3 EML4-ALK G1269S tumors; test: In vivo efficacy, xenograft of Ba/F3 cells expressing EML4-ALK G1269S; design: species or system SCID Beige mice; conditions: 50 and 75 mg/kg, once daily oral gavage
[4] = tested on: Ba/F3 cells expressing native EML4-ALK; test: Accelerated in vitro mutagenesis screen
[5] = tested on: Ba/F3 EML4-ALK S1206R tumors; test: In vivo efficacy, xenograft of Ba/F3 cells expressing EML4-ALK S1206R; design: species or system SCID Beige mice; conditions: 75 mg/kg, once daily oral gavage
[6] = tested on: EML4-ALK S1206R tumors; test: Pharmacodynamics: p-ALK in EML4-ALK S1206R tumors in vivo; design: species or system mice; conditions: sustained for 24 hrs after single dose of 50 mg/kg
Method: Calibration standards were prepared in blank mouse plasma.

[7] = clinical, at MTD; cited from earlier work
[8] = Table 2, Ba/F3 parental, read-out: IC50

## COc1cc(N2CCC(N3CCN(C)CC3)CC2)ccc1Nc1ncnc(Nc2ccccc2S(=O)(=O)C(C)C)n1 [ASP3026]
[1]; [8]
  IC50: > 10 µM
[2]
  IC50: 5.94 ± 2.28 µM

## CCc1cc2c(cc1N1CCC(N3CCOCC3)CC1)C(C)(C)c1[nH]c3cc(C#N)ccc3c1C2=O [CH5424802]
[1]; [8]
  IC50: > 10 µM

## COc1cc(N2CCC(N3CCN(C)CC3)CC2)ccc1Nc1ncc(Cl)c(Nc2ccccc2P(C)(C)=O)n1 [Compound 1]
[1]; Table 1, Parental Ba/F3 (IL-3), 72 h, n = 5, read-out: IC50s
  IC50: 2.19 ± 0.41 µM
[1]; [8]
  IC50: 4.58 ± 1.55 µM
[3]
  tumor response in xenograft: complete tumor regression
[4]; at 500 nM (S1206R)
  mutations recovered: only one
[4]; mutagenesis screen
  concentration that completely suppressed the emergence of resistance: 1000 nM
[4]; number of different mutants
  mutants recovered in the screen: ten
[5]
  tumor response in xenograft: tumor growth inhibition
[6]
  p-ALK inhibition: 40-60%

## C[C@@H](Oc1cc(-c2cnn(C3CCNCC3)c2)cnc1N)c1c(Cl)ccc(F)c1Cl [crizotinib]
[1]; BaF3, read-out: inhibition of parental Ba/F3 cell proliferation
  inhibition at […]: > 90%
[1]; [8]
  IC50: 2.06 ± 0.373 µM
[7]
  median Ctrough: ~225 ng/mL
